Data: patent US7835013B2, “Interferometric detection system and method” (Vanderbilt University, priority 2007, dated 2010)
Where two headings read alike, the source gives them in different places.

How the values were obtained:
Calmodulin = Calmodulin (Homo sapiens, UniProt P0DP23); conditions: read-out: published Kd Calmodulin-calcium ion; cited from earlier work
Calmodulin (CaM) = target: T1, Calmodulin (CaM) (Homo sapiens, UniProt P0DP23); assay: BSI stop-flow label-free homogeneous binding to Calmodulin; conditions: for Kd: 5 μM CaM, 12.5-100 μM Ca^2+, pH 7.5, 25° C.
T1 construct: purchased Sigma, St. Louis, Mo

[Ca+2] [Ca^2+]
Kd (Calmodulin): 1 to 10 µM
control: change in signal above that observed in the absence of excess EGTA (Calmodulin (CaM); 5 μM CaM and 100 μM Ca^2+, both with excess EGTA (400 μM)): < 3%
Kd (Calmodulin (CaM); read-out: Kd CaM-Ca^2+ from kinetic analysis (single exponential, least squares)): 3.36 µM
Kd (Calmodulin (CaM); read-out: Kd CaM-Ca^2+ from steady-state values, Prism software): 17.8 µM
